# Measurements published in patent US20070249620A1, “Urea Derivative” (priority 2004, published 2007).
row,SMILES,melting point
1,"COc1ccc(F)cc1NC(=O)Nc1ccc(N2CCN(C(=O)OC(C)(C)C)CC2)cc1 [Example 44, 4-{4-[3-(5-fluoro-2-methoxy-phenyl)-ureido]-phenyl}-piperazine-1-carboxylic acid tert-butyl ester]",200 to 202 °C
2,"COc1ccc(F)cc1NC(=O)Nc1ccc(N2CCN(C(=O)OC(C)(C)C)CC2)nc1 [Example 45, 4-{5-[3-(5-fluoro-2-methoxy-phenyl)-ureido]-pyridin-2-yl}-piperazine-1-carboxylic acid tert-butyl ester]",200 to 201 °C
3,"COc1ccc(C)cc1NC(=O)Nc1ccc(N2CCN(C(=O)Oc3ccccc3)CC2)cc1 [Example 47, 4-{4-[3-(2-methoxy-5-methyl-phenyl)-ureido]-phenyl}-piperazine-1-carboxylic acid phenyl ester]",179 °C
4,"COc1ccc(C)cc1NC(=O)Nc1ccc(N2CCN(C(=O)C3CCCCC3)CC2)cc1 [Example 48, 1-[4-(4-cyclohexanecarbonyl-piperazin-1-yl)-phenyl]-3-(2-methoxy-5-methyl-phenyl)-urea]",222 °C
5,"COc1ccc(C)cc1NC(=O)Nc1ccc(N2CCN(C(=O)Nc3ccccc3)CC2)cc1 [Example 49, 4-{4-[3-(2-methoxy-5-methyl-phenyl)-ureido]-phenyl}-piperazine-1-carboxylic acid phenylamide]",221 °C
6,"COc1ccc(C)cc1NC(=O)Nc1ccc(N2CCN(C(=O)NCc3ccccc3)CC2)cc1 [Example 50, 4-{4-[3-(2-methoxy-5-methyl-phenyl)-ureido]-phenyl}-piperazine-1-carboxylic acid benzylamide]",224 °C
7,"COc1ccc(C)cc1NC(=O)Nc1ccc(N2CCN(C(N)=O)CC2)cc1 [Example 51, 4-{4-[3-(2-methoxy-5-methyl-phenyl)-ureido]-phenyl}-piperazine-1-carboxylic acid amide]",136 °C
8,"COc1ccc(C)cc1NC(=O)Nc1ccc(N2CCN(C(=O)Nc3ccccc3F)CC2)cc1 [Example 52, 4-{4-[3-(2-methoxy-5-methyl-phenyl)-ureido]-phenyl}-piperazine-1-carboxylic acid (2-fluoro-phenyl)-amide]",200 to 201 °C
9,"COc1ccc(C)cc1NC(=O)Nc1ccc(N2CCN(C(=O)Nc3c(F)cccc3F)CC2)cc1 [Example 55, 4-{4-[3-(2-methoxy-5-methyl-phenyl)-ureido]-phenyl}-piperazine-1-carboxylic acid (2,6-difluoro-phenyl)-amide]",224 °C
10,"COc1ccc(C)cc1NC(=O)Nc1ccc(N2CCN(C(=O)Nc3ccccc3Cl)CC2)cc1 [Example 56, 4-{4-[3-(2-methoxy-5-methyl-phenyl)-ureido]-phenyl}-piperazine-1-carboxylic acid (2-chloro-phenyl)-amide]",> 240 °C (dec.)
11,"CCc1cccc(C)c1NC(=O)N1CCN(c2ccc(NC(=O)Nc3cc(C)ccc3OC)cc2)CC1 [Example 63, 4-{4-[3-(2-methoxy-5-methyl-phenyl)-ureido]-phenyl}-piperazine-1-carboxylic acid (2-ethyl-6-methyl-phenyl)-amide]",207 to 209 °C
12,"COc1ccc(Cl)cc1NC(=O)Nc1ccc(N2CCN(C(=O)Nc3ccccc3F)CC2)cc1 [Example 67, 4-{4-[3-(5-chloro-2-methoxy-phenyl)-ureido]-phenyl}-piperazine-1-carboxylic acid (2-fluoro-phenyl)-amide]",218 to 220 °C
13,"COc1ccc(Cl)cc1NC(=O)Nc1ccc(N2CCN(C(=O)Nc3ccccc3C(F)(F)F)CC2)cc1 [Example 68, 4-{4-[3-(5-chloro-2-methoxy-phenyl)-ureido]-phenyl}-piperazine-1-carboxylic acid (2-trifluoromethyl-phenyl)-amide]",213 to 214 °C
14,"COc1ccc(Cl)cc1NC(=O)Nc1ccc(N2CCN(C(=O)Nc3ccccc3C)CC2)cc1 [Example 69, 4-{4-[3-(5-chloro-2-methoxy-phenyl)-ureido]-phenyl}-piperazine-1-carboxylic acid o-tolylamide]",230 to 232 °C
